Experimental data published in patent US20260157984A1, “CERAMIDE COMPOSITION” (GENUINE R&D CO., LTD., priority 2021, published 2026).

Tested on: HaCaT cells
Test: Measurement of mitochondrial activity by IN Cell Analyzer 2200 in HaCaT cells
Assay type: cell-based, human
Conditions: HaCaT cells treated with ceramides 48 hours, 5 μM, FIG. 1
Protocol: A human epidermal keratinocyte cell line, i.e., HaCaT cells, was used as a human skin cell model. The cells were subcultured in a cell culture dish (Greiner Bio-One Co., Ltd., Tokyo, Japan) at 37° C. in the presence of 5% CO2 by using DMEM medium (Dulbecco's Modified Eagle Medium, Nissui, Tokyo, Japan) containing 10% inactivated fetal bovine serum (FBS, Life Technologies Corporation, CA, USA). […]
HaCaT cells were seeded in a 96-well plate at a density of 6.0×10^4 cells/mL and precultured for 24 hours. […] Thereafter, the diluted Hoechst […] solution was removed from the 96-well plate, […] of PBS was added, and the fluorescence was detected using an IN Cell Analyzer 2200 (GE Healthcare). By measuring the amounts of fluorescence of MitoTracker Red, MitoTracker Green, and Hoechst 33342, the mitochondrial activity, number, and area in the cells were examined. The images were analyzed using IN Cell Investigator High-content image analysis software (GE Healthcare).
The mitochondrial number and area (MitoTracker Green), as well as the mitochondrial membrane potential activity (MitoTracker Red), per cell were measured using an IN Cell Analyzer 2200 in HaCaT cells treated with ceramides for 48 hours.

CCCCCCCCCCCCCCCCCC(=O)N[C@@H](CO)[C@H](O)CCCCCCCCCCCCCCC [synthetic ceramide, ceramide NG]
mitochondrial number per cell (MitoTracker Green): significantly increased
